Literature values in patent US9458123B2, “Methods, pharmaceutical compositions, therapeutic systems, and compounds for treating B cell malignancies” (University of Rochester, priority 2012, dated 2016).

Target: Ubc13 and Uev1A (Homo sapiens, UniProt P61088+Q13404)
Details: previous studies; cited from earlier work

Chain of Ubc13 and Uev1A (P61088 whole entry, species assumed): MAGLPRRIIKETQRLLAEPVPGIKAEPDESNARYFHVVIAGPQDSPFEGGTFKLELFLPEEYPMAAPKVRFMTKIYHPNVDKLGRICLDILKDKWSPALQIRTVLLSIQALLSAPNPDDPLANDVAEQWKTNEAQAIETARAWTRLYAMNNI
Chain of Ubc13 and Uev1A (Q13404 whole entry, species assumed): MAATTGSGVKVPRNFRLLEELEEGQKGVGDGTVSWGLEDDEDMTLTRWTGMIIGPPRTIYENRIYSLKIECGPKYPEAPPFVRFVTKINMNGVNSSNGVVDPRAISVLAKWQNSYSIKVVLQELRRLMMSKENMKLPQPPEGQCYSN

C[C@@H](N)[C@@H](O)C/C=C\C/C=C\C/C=C\C/C=C\C/C=C\C/C=C\CCCCCC[C@H](O)[C@@H](C)N [leucettamol A]
complex formation between Ubc13 and Uev1A in vitro: inhibited
